ChEMBL document CHEMBL1152341, “Polyacetylenes from sardinian Oenanthe fistulosa: a molecular clue to risus sardonicus” (J Nat Prod, 2009)

Columns and labels:
[1] = (§1) Antagonist activity at GABAA receptor in Wistar rat neuronal cells assessed inhibition of GABA-evoked response by patch-clamp technique; format: functional, cell-based
[2] = test system: neuronal; assay: as §1; format: functional, cell-based

Compound `CCC[C@@H](O)CC/C=C/C=C/C#CC#CCCCO` [DIHYDROOENANTHOTOXIN] has an EC50 [1] of 0.835 µM.
For `CCC[C@@H](O)CC/C=C/C=C/C#CC#C/C=C/CO` [OENANTHOTOXIN], the Activity [2] was “Dose-dependent effect” and the EC50 [1] was 1.39 µM.
